In ChEMBL document CHEMBL5303304, “EUbOPEN Chemogenomics Library - IncuCyte” (2023):

How the values were obtained:
Assay type in all cases: toxicity, cell-based
Fibroblast = assay: Incucyte cell viability with human fibroblast; details: 10 µM, compound concentration 10 uM
HEK-293T = assay: Incucyte cell viability with HEK293T; details: human, 10 µM, compound concentration 10 uM
U2OS = assay: Incucyte cell viability with U2OS; details: human, 10 µM, compound concentration 10 uM
Further: unitless GR value; below 1 slowed growth and below 0 cell loss.

Compound | Growth Rate (Fibroblast; 12 h, replicate number 1) | Growth Rate (Fibroblast; 12 h, replicate number 2) | Growth Rate (Fibroblast; 18 h, replicate number 1) | Growth Rate (Fibroblast; 18 h, replicate number 2) | Growth Rate (Fibroblast; 24 h, replicate number 1) | Growth Rate (Fibroblast; 24 h, replicate number 2) | Growth Rate (HEK-293T; 6 h, replicate number 1) | Growth Rate (HEK-293T; 6 h, replicate number 2) | Growth Rate (HEK-293T; 12 h, replicate number 1) | Growth Rate (HEK-293T; 12 h, replicate number 2) | Growth Rate (HEK-293T; 18 h, replicate number 1) | Growth Rate (HEK-293T; 18 h, replicate number 2) | Growth Rate (HEK-293T; 24 h, replicate number 1) | Growth Rate (HEK-293T; 24 h, replicate number 2) | Growth Rate (U2OS; 6 h, replicate number 2) | Growth Rate (U2OS; 12 h, replicate number 1) | Growth Rate (U2OS; 12 h, replicate number 2) | Growth Rate (U2OS; 18 h, replicate number 1) | Growth Rate (U2OS; 18 h, replicate number 2) | Growth Rate (U2OS; 24 h, replicate number 1) | also measured
COc1cc(C(=O)NC2CCN(C)CC2)ccc1Nc1ncc2c(n1)N(C1CCCC1)CC(F)(F)C(=O)N2C | 0.51 | 0.72 | 0.36 | 0.45 | 0.28 | 0.42 | 0.85 | -0.29 | 0.86 | -0.06 | 0.53 | -0.2 | 0.26 | -0.23 | 0.18 | 0.23 | -0.13 | 0.12 | -0.08 | 0.2 | Growth Rate (U2OS; 0 h, replicate number 1): -0.99; Growth Rate (U2OS; 0 h, replicate number 2): 0.71; Growth Rate (U2OS; 6 h, replicate number 1): 0.46; Growth Rate (U2OS; 24 h, replicate number 2): -0.03
COc1ccccc1-c1cc(Nc2cccc(CS(N)(=O)=O)c2)ncn1 | 0.63 |  | 0.61 | 0.93 | 0.52 | 0.59 | -0.26 | -0.38 | -0.07 | -0.15 | 0.16 | 0.21 | 0.38 | 0.33 | 0.46 | 0.51 | 0.46 | 0.22 | 0.43 | 0.46 | Growth Rate (Fibroblast; 0 h, replicate number 2): -0.71; Growth Rate (Fibroblast; 6 h, replicate number 1): 0.43; Growth Rate (U2OS; 6 h, replicate number 1): 0.81; Growth Rate (U2OS; 24 h, replicate number 2): 0.49
Cc1cc(-c2cnc(N)c3c(-c4ccc5scnc5c4)csc23)n(C)n1 | 0.42 | 0.67 | 0.91 | 0.9 |  | 0.92 | -0.34 |  | -0.15 |  | 0.02 |  | 0.06 |  | 0.91 | 0.94 | -0.33 | 0.91 |  |  | Growth Rate (Fibroblast; 0 h, replicate number 1): -1; Growth Rate (Fibroblast; 6 h, replicate number 1): 0.88; Growth Rate (Fibroblast; 6 h, replicate number 2): 0.31; Growth Rate (U2OS; 0 h, replicate number 1): -0.98; Growth Rate (U2OS; 0 h, replicate number 2): -0.85
CCN(C)S(=O)(=O)Nc1cccc(-c2ccc3c(NC(=O)C4CC4)n[nH]c3c2)c1 | -0.17 | -0.25 | -0.01 | -0.16 | 0.13 | -0.03 | -0.21 | -0.69 | -0.1 | -0.46 | -0.03 | -0.33 | 0 | -0.21 | -0.06 | -0.32 | 0.08 | -0.12 | 0.1 | 0.11 | Growth Rate (Fibroblast; 6 h, replicate number 1): -0.58; Growth Rate (Fibroblast; 6 h, replicate number 2): -0.37; Growth Rate (U2OS; 0 h, replicate number 2): -0.42; Growth Rate (U2OS; 6 h, replicate number 1): -0.66; Growth Rate (U2OS; 24 h, replicate number 2): 0.17
CN(C)C/C=C/C(=O)Nc1cccc(S(=O)(=O)N2CCC(NC(=O)c3n[nH]cc3NC(=O)c3c(Cl)cc(Cl)cc3Cl)CC2)c1 | 0.8 | 0.45 | 0.26 | 0.09 | 0.12 | -0.13 | -0.58 | -0.85 | -0.49 | -0.7 | -0.34 | -0.61 | -0.05 | -0.34 | 0.35 | 0.1 | -0.3 | -0.42 | -0.38 | -0.51 | Growth Rate (Fibroblast; 6 h, replicate number 2): 0.98; Growth Rate (U2OS; 24 h, replicate number 2): -0.42
CC(C)(C)c1cnc(CSc2cnc(NC(=O)C3CCN(CC(=O)NCCOCCOCCOCCNc4cccc5c4C(=O)N(C4CCC(=O)NC4=O)C5=O)CC3)s2)o1 (stereo not drawn) | -0.04 | -0.09 | -0.02 | -0.15 | 0.11 | -0.12 | -0.56 | -0.74 | -0.47 | -0.62 | -0.38 | -0.5 | -0.29 | -0.39 | 0.25 | 0.31 | 0.19 | 0.16 | -0.02 | -0.05 | Growth Rate (Fibroblast; 0 h, replicate number 1): -0.99; Growth Rate (Fibroblast; 6 h, replicate number 1): 0.1; Growth Rate (Fibroblast; 6 h, replicate number 2): 0.11; Growth Rate (U2OS; 0 h, replicate number 2): 0.98; Growth Rate (U2OS; 6 h, replicate number 1): 0.29; Growth Rate (U2OS; 24 h, replicate number 2): -0.04
